Test results: ChEMBL document CHEMBL1159006, “Anti-HIV and cytotoxic alkaloids from Buchenavia capitata” (J Nat Prod, 1992)
Active and inactive are the calls of the source. No cut-off for these calls is given here.

What was measured:
CEM-SS = experiment: Cytotoxicity against human CEM-SS cells; assay type: cell-based
[1] = system: Human immunodeficiency virus 1; experiment: Antiviral activity against HIV1 in human CEM-SS cells after 6 days; assay type: functional, organism-based
[2] = system: Human immunodeficiency virus 1; experiment: Antiviral activity against HIV1 in human C8166 cells; assay type: functional, organism-based
[3] = Cytotoxicity against human melanoma cells after 48 hrs by SRB assay; assay type: functional; conditions: Melanoma cell, read-out: LC50 (the source's name)
Escherichia coli [4] = experiment: DNA damaging activity against Escherichia coli BR513 containing lysogenic lambda-lacZ fusion phage at 1 mg/ml by biochemical prophage induction assay; assay type: functional, organism-based
[5] = biological target: Protease (Human immunodeficiency virus 1) (UniProt Q9YQ12); experiment: Inhibition of HIV1 protease expressed in Escherichia coli by immunoblotting
Sequence of Protease (Human immunodeficiency virus 1) (Q9YQ12 as listed by the source): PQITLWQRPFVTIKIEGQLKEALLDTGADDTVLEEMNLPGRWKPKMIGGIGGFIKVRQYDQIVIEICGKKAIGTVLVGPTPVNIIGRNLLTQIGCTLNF

[6] = system: Human immunodeficiency virus 1; experiment: Antiviral activity against HIV1 RF in human MT2 cells; assay type: functional, organism-based
[7] = biological target: Human immunodeficiency virus type 1 reverse transcriptase (Human immunodeficiency virus 1) (UniProt Q72547); experiment: Inhibition of HIV1 reverse transcriptase
[8] = system: Human immunodeficiency virus 2; experiment: Inhibition of HIV2 reverse transcriptase
[9] = system: Human immunodeficiency virus 2; experiment: Antiviral activity against HIV2 NIH-DZ assessed as cytoprotection; assay type: functional, organism-based
[10] = system: Human immunodeficiency virus 1; experiment: Antiviral activity against HIV1 3B in human H9 cells; assay type: functional, organism-based
Escherichia coli [11] = experiment: DNA damaging activity against Escherichia coli K12 at 1 mg/ml by SOS chromotest agar spot test; assay type: functional, organism-based

| EC50 ([1]; Human immunodeficiency virus 1, CEM-SS, 144 h) [µM] | SMILES | IC50 (CEM-SS) [µM] | Activity [1] [%] | Activity [2] | CC50 [3] [µM] | Activity (Escherichia coli [4]) | Activity [5] | Activity [6] | Activity [7] | Activity [8] | Activity [9] | Activity [10] | Activity (Escherichia coli [11]) |
| --- | --- | --- | --- | --- | --- | --- | --- | --- | --- | --- | --- | --- | --- |
| 142 | O=c1cc(-c2ccccc2)oc2c(C3CCCCN3)c(O)cc(O)c12 (stereo not given) | 142 |  |  |  |  |  |  |  |  |  |  |  |
|  | COc1cc(O)c(C2CCCCN2C)c2oc(-c3ccccc3)cc(=O)c12 (stereo not given) [BUCHENAVIANINE] | 5.7 | <50 |  |  |  |  |  |  |  |  |  |  |
|  | CN1CCCCC1c1c(O)cc(O)c2c(=O)cc(-c3ccccc3)oc12 (stereo not given) | 0.66 |  | inactive | 0.1 | inactive | inactive | inactive | inactive | inactive | inactive | inactive | inactive |
